Measured values from PubChem BioAssay AID1645866 (Buhrlage Lab, Dana-Farber Cancer Institute and Novartis …, 2021).
Active and inactive are the calls of the source.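 Rule for the calls: active = in confirmatory dose-response testing, peak deubiquitinase inhibition of 30% or more; inactive = the rest.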

Target: Ubiquitin carboxyl-terminal hydrolase 28 (Homo sapiens) (UniProt Q96RU2)
Assay: Ubiquitin-specific peptidase 28 DUB inhibitors, biochemical concentration-dependence assay, validation of primary screening hits (AID 1645866)
Details: purified USP28, ubiquitin-rhodamine fluorescence, 30 min

Chain of Ubiquitin carboxyl-terminal hydrolase 28 (Homo sapiens) (Q96RU2 whole entry, looked up): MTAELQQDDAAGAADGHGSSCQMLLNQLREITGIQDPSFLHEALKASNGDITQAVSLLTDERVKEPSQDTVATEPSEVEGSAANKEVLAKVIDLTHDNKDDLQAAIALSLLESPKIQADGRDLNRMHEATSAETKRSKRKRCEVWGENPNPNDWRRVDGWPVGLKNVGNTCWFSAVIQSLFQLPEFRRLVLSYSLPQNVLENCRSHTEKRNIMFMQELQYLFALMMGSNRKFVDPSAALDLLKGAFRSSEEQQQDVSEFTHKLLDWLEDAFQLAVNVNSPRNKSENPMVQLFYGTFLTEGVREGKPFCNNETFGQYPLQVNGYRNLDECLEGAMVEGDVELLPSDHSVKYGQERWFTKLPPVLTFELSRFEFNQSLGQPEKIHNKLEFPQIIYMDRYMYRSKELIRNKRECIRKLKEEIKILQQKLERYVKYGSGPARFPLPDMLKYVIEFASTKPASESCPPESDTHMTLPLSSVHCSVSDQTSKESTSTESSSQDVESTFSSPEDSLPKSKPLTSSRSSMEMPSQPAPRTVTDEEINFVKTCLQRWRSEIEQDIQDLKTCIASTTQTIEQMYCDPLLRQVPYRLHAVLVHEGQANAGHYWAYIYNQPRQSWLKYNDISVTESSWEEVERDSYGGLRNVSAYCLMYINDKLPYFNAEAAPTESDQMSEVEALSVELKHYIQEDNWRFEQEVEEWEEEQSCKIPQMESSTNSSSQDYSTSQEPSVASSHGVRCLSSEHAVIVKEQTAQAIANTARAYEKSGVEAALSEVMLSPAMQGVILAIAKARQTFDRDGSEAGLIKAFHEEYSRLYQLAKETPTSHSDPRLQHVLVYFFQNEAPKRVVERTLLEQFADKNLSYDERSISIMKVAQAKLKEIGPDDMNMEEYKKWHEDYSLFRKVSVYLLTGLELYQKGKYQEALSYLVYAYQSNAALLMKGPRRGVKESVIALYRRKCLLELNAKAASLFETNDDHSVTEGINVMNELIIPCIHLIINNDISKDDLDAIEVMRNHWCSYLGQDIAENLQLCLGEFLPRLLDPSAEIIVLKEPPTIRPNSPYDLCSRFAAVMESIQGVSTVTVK

Compound | IC50
CN(C)C1CCN(C(=O)c2cc(-c3ccn(-c4ccccc4)n3)n3ccccc23)CC1 | > 50 µM (inactive)
Cc1ccc2c(c1)c(=O)c(C(=O)c1ccccc1)cn2CC(=O)Nc1ccc2c(c1)OCCO2 | 4.21 µM
CSc1nccc(-c2ccc(F)cc2)c1C#N | 46.2 µM
COc1ccc(NC(=O)COc2cc(CSc3ccccc3)ncc2OC)cc1 | > 50 µM (inactive)
CC(C)NC(=O)CN1C(=O)CC(C)Sc2ccc(S(=O)(=O)N3CCCCC3)cc21 (stereo not drawn) | 41.6 µM
CCOc1ccccc1-c1nc(-c2nnn(Cc3ccccc3)c2C)no1 | > 50 µM (inactive)
O=C(Nc1cc(Cl)ccc1-n1cncn1)c1ccc(S(=O)(=O)N2CCCC2)cc1 | > 50 µM (inactive)
Cc1cc(C(F)(F)F)n2nc(C3CCN(C(=O)c4cnn(C)c4C)C3)cc2n1 (stereo not drawn) | > 50 µM (inactive)
O=C(COc1ccc(F)cc1)Nc1cnc(-c2ccc(Cl)cc2)nc1 | 34.2 µM
CC1(C(=O)NCc2ccccc2)Cn2c(cc3ccccc32)C(=O)N1Cc1ccccc1 (stereo not drawn) | 48.7 µM
O=C(COc1ccc2oc3c(c2c1)CCCC3)Nc1ccccn1 | 24.9 µM
O=C(NCc1nc2ccccc2[nH]1)c1cccc(S(=O)(=O)N2CCc3ccccc32)c1 | 31.4 µM
CN(C)S(=O)(=O)N1CCCC2(C1)Nc1cccnc1NC2=NC1CCCC1 (stereo not drawn) | > 50 µM (inactive)
Cc1ccc(OC(=O)c2cn(-c3ccccc3)nc2-c2cccnc2)cc1 | > 50 µM (inactive)
CSc1nc2ncc3c(=O)n(CCc4ccccc4)ccc3n2n1 | > 50 µM (inactive)
Cc1ccccc1NC(=O)CNc1nc(Nc2ccccc2)nc(Nc2ccccc2)n1 | 19.1 µM
O=C(CSc1nc2ccccc2n1S(=O)(=O)c1ccc(Br)cc1)Nc1ccc([N+](=O)[O-])cc1Cl | 8.65 µM
CCn1c(CN2CCCC(c3nc(-c4cccnc4)n[nH]3)C2)nc2ccccc21 (stereo not drawn) | 3.13 µM
CSc1ccc(CNCc2c(C(=O)O)n(Cc3ccccc3)c3cc(C)ccc23)cc1 | > 5 µM (inactive)
COc1ccc(NC(=O)c2nnn(-c3cccc(C)c3)c2C)cc1 | 26.2 µM
CCOc1ccc2c(c1)c(=O)c(C(=O)c1ccc(C)cc1)cn2CC(=O)Nc1ccc(OC)c(OC)c1 | 0.686 µM
N#Cc1ccc(NC(=O)COC(=O)c2ccc3ccccc3n2)cc1 | > 50 µM (inactive)
O=C(Cn1c(=O)n(Cc2ccccc2)c(=O)c2ncccc21)NCc1ccccc1Cl | 25.9 µM
Nc1c(-c2ccc(Cl)cc2)cnc2nc(Sc3ncc(C(F)(F)F)cc3Cl)nn12 | > 50 µM (inactive)
Cc1sc(NC(=O)CNc2ccccc2)nc1-c1ccc2c(c1)CCN2C(=O)C(C)C | > 50 µM (inactive)
Cc1c(C(=O)Nc2ccc(-c3nnc4n3CCCCC4)cc2)oc2c1ccc1ccccc12 | 4.09 µM

Compound | IC50
Cc1oc2ccc(NS(=O)(=O)c3ccc(F)cc3)cc2c1C(=O)OCc1ccccc1 | 9.05 µM
COc1ccccc1CC(=O)Nc1nc2ccccc2[nH]1 | 37.1 µM
O=C(Nc1cccc(C(F)(F)F)c1)c1cc2c(s1)-c1ccccc1OC2 | 6.78 µM
Cc1ccccc1NC(=O)Nc1ccccc1OCc1cc(=O)n2cccc(C)c2n1 | 1.04 µM
Nc1ncnc(SCc2ccc(Cl)cc2)n1 | 19.7 µM
Cc1cc(/C=C2/C(=N)N3C(c4ccccc4)=CSC3=NC2=O)c(C)n1-c1ccc2ccccc2c1 | > 50 µM (inactive)
CCCCc1nc2sc3c(NCCN4CCOCC4)ncnc3c2c2c1CCC2 | 0.549 µM
Cc1ccccc1NC(=O)Cn1c(N2CCOCC2)nc2cc(C)n(C)c2c1=O | 20.1 µM
Cn1c2ccccc2c(=O)c2c(=O)n(Cc3ccccc3)c(-c3ccccc3F)nc21 | 0.108 µM
Cc1nn(CC(=O)Nc2ccc(Br)c3cccnc23)c(=O)c2ccccc12 | 21.5 µM
CCCc1nc2sc3c(N(CC)CC)ncnc3c2c2c1CCC2 | 3.77 µM
O=C(Cc1c[nH]c2ccccc12)Nc1nc2ccccc2s1 | 21.2 µM
COc1ccc(CCNC(=O)CCn2c(=O)c3ccccc3n(Cc3ccc(C)cc3)c2=O)cc1OC | 22 µM
Fc1ccc(-c2noc(-c3nnc(NCc4cccnc4)c4ccccc34)n2)cc1 | 2.97 µM
Cc1ccc2c(c1)[C@]1(C(=O)N2)[C@@H]2C(=O)N(c3cccc(C(F)(F)F)c3)C(=O)[C@@H]2C2CCCN21 (stereo partly drawn) | > 50 µM (inactive)
O=C(Nc1cccc(-c2nc3ccccc3[nH]2)c1)c1cc2ccccc2oc1=O | 2.17 µM
COc1ccc2cc1Oc1cc(ccc1OC)C(O)C13SSC4(C(=O)N1C)C(O)C1=COC=CC(OC2=O)C1N4C3=O (stereo not drawn) | > 50 µM (inactive)
O=C(Nc1ccccc1)c1nc(-c2cn(Cc3ccc(F)cc3)nn2)no1 | 21 µM
Cc1c(C(=O)c2ccccc2)c2ccccn2c1CCc1ccccn1 | > 50 µM (inactive)
Cc1ccc(C(=O)NCC(=O)Nc2nc3ccccc3[nH]2)c(C)c1 | 24.6 µM
O=C(Cn1cncc(-c2nc(-c3ccccc3)cs2)c1=O)NC1CCCC1 | 36.5 µM
Nc1ccccc1SC(CC(=O)c1ccc(Cl)cc1)c1ccsc1 (stereo not drawn) | > 50 µM (inactive)
CCCC(=O)Nc1nc2ccc(CCC(=O)NCc3ccc(F)cc3)cc2s1 | 25.8 µM
CCCCN1CC(C(=O)Nc2ccc(C(=O)Nc3ccc(Cl)cc3)cc2)CC1=O (stereo not drawn) | 10.5 µM
COc1ccc(-c2nc(-c3nnn(Cc4ccc(F)cc4)c3C)no2)c(OC)c1 | 5.4 µM
O=C(Nc1nc2c(ccc3ccccc32)s1)c1cccc(Br)c1 | 9.32 µM

Compound | IC50
CCn1cnc2ccc(C(=O)NC3CC3)cc2c1=O | 20.2 µM
COc1cccc(NC(=O)Nc2nccn(-c3ccc(F)cc3)c2=O)c1 | 18.3 µM
O=C(O)c1nccnc1C(=O)N1CCc2ccccc2C1 | > 50 µM (inactive)
Cc1nc(C(=O)NC2(O)C(=O)c3ccccc3C2=O)cs1 | 14 µM
COc1c(O)c(O)c2c(=O)cc(-c3ccc(O)cc3)oc2c1OC | 27.2 µM
COc1ccc2nc(Nc3nc(-c4cnc(N5CCOCC5)nc4C)cc(=O)[nH]3)nc(C)c2c1 | > 50 µM (inactive)
CCN1C(SCc2ccccc2F)=NS(=O)(=O)c2ccccc21 | 12.6 µM
O=c1[nH]cccc1NS(=O)(=O)c1ccc(F)cc1 | > 50 µM (inactive)
CC1CCN(c2nnc(-c3nc(C4CC4)no3)c3ccccc23)CC1 | > 50 µM (inactive)
O=C(Nc1ccc(-c2cn3ccsc3n2)cc1)c1ccc(Cl)c([N+](=O)[O-])c1 | 1.53 µM
O=C(NCc1ccc(F)cc1)C1CCN(c2cnc(N3CCCCC3)nc2)CC1 | 0.695 µM
CCOC(=O)C1CCN(C(=O)c2ccc3c(c2)NC(=O)C2CCCN32)CC1 (stereo not drawn) | > 50 µM (inactive)
O=C(COC(=O)c1cc2c(s1)CCC2)c1ccc2[nH]c(=O)[nH]c2c1 | 6.48 µM
Cc1c(CC(=O)Nc2nn[nH]n2)c(=O)oc2cc3c(cc12)CCC1(CCCCC1)O3 | > 50 µM (inactive)
COc1ccc(S(=O)(=O)N(C)Cc2cccs2)cc1OC | 17.4 µM
Cc1ccccc1NC(=O)c1cc(S(=O)(=O)N2CCCCCC2)ccc1Cl | 25.6 µM
Cc1nn(-c2cccc(F)c2)c2c1C(C(=O)c1ccc(Cl)s1)CC(=O)N2 (stereo not drawn) | 48.6 µM
O=C(Cc1cccc2ccccc12)Nc1nc2ccc(F)cc2s1 | 36.9 µM
CCOc1cc(C2C3=C(CC(C)(C)CC3=O)Nc3onc(C)c32)ccc1O (stereo not drawn) | 37.5 µM
CC(C)CC1NC(=O)C2CCCN2C1=O (stereo not drawn) | 37.1 µM
CC(C)(C)N=C1Nc2ncccc2NC12CCCN(C(=O)c1ccccc1)C2 (stereo not drawn) | > 50 µM (inactive)
Fc1cccc(Cn2cc(-c3noc(-c4cccnc4)n3)nn2)c1 | 29.1 µM
COc1ccc(COc2ccc3c(C)c(CC(=O)N4CC[C@@]5(O)CCCC[C@H]5C4)c(=O)oc3c2)cc1 | 2.27 µM
COc1ccc2nc(Nc3ncc4c(n3)CCCC4=O)nc(C)c2c1 | > 5 µM (inactive)
Cc1csc2ncc(C(=O)N3CCN(c4ccccc4F)CC3)c(=O)n12 | > 50 µM (inactive)
Oc1ccc(-c2nc3cnccn3c2NCCc2ccccc2)c(O)c1 | > 50 µM (inactive)

Compound | IC50
Fc1ccc(CSc2nnc(-c3ccccn3)n2Cc2ccco2)cc1 | 21.9 µM
CNC(=O)c1cc2c(=O)n3cccc(C)c3nc2n1Cc1ccccc1 | 18.8 µM
Fc1ccc(CN2CCc3nc4cccnc4cc3C2)cc1 | > 50 µM (inactive)
COc1ccc(-c2cc(-c3nnc(CSc4nc5ccccc5n4C)o3)c3ccccc3n2)cc1OC | > 50 µM (inactive)
CC1CC(=O)c2c(cc3c(-c4c(O)cc(O)c5c(O)c6c(cc45)OC(C)CC6=O)c(O)cc(O)c3c2O)O1 (stereo not drawn) | 20.8 µM
O=C(COc1ccc(Cl)cc1Cl)Nc1ccccc1-c1nc2ccccc2[nH]1 | 2.38 µM
Cc1ccc(C)c(S(=O)(=O)N2CCN(c3ccc4nnc(-c5ccco5)n4n3)CC2)c1 | > 50 µM (inactive)
COC(=O)c1sccc1NC(=O)COc1ccsc1C(=O)OC | 25.6 µM
O=C(Nc1cccc(OC(=O)c2ccc(Cl)cc2)c1)c1ccc(Cl)cc1 | 41.2 µM
CCOc1ccc(NC(=O)CSc2nc3n[nH]c(C)c3c(=N)n2-c2ccc(OC)cc2)cc1 | 34 µM
O=C(c1ccc2occc2c1)N1CCC(S(=O)(=O)c2ccc(-c3ccco3)cc2)CC1 | > 50 µM (inactive)
O=c1c2cnc(N3CCOCC3)nc2ccn1CCc1ccccc1 | 15.2 µM
COc1ccc(CN2CCCC23CCCN(C(=O)CCc2cccnc2)C3)cc1F (stereo not drawn) | 26.4 µM
COc1ccc(NC(=O)c2[nH]nc3c2COc2ccccc2-3)c(OC)c1 | 6.94 µM
COC(=O)c1ccc(Cn2cnc3ccc(Br)cc3c2=O)o1 | 2.07 µM
CC(c1ccccc1)c1nc(-c2ccc(=O)[nH]c2)no1 (stereo not drawn) | 3.78 µM
COc1ccc(NC(=O)Nc2cccc(-c3nnc(-c4ccccc4)o3)c2)cc1OC | 21.7 µM
CCOC(=O)c1cc2c(ccn2C)n1CC(=O)N1CCC(C)CC1 | > 50 µM (inactive)
CCOc1ccc(NC(=O)Cn2c(=O)n(CCCCCC(=O)NCc3ccc(F)cc3)c(=O)c3sccc32)cc1 | 1.95 µM
COc1ccc(NC(=O)Cn2cc(C(=O)c3ccc(F)cc3)c(=O)c3cc(C)ccc32)cc1 | 19.7 µM
CC(=O)Nc1ccc(O)c(-c2nc3cc(C)ccc3o2)c1 | 3.38 µM
O=C(c1cnccn1)N1CCc2[nH]c3ccc(F)cc3c2C1 | > 50 µM (inactive)
COc1ccc(-c2nc(SCC(=O)Nc3ccc(Cl)cc3F)n[nH]2)cc1 | > 50 µM (inactive)
O=C(Cc1cccnc1)Nc1ccc(N2CCN(C3CCCCC3)C2=O)nc1 | > 50 µM (inactive)
CCOC(=O)c1ccc(NC(=O)Cn2c(=O)n(CC(=O)NCCc3ccc(OC)c(OC)c3)c(=O)c3sccc32)cc1 | 1.96 µM
